Data set [1] addresses T1, recombinant An. coluzzii Coeae6g (Anopheles coluzzii, UniProt A0A6E8VQK1).
T1 sequence (A0A6E8VQK1 1-582): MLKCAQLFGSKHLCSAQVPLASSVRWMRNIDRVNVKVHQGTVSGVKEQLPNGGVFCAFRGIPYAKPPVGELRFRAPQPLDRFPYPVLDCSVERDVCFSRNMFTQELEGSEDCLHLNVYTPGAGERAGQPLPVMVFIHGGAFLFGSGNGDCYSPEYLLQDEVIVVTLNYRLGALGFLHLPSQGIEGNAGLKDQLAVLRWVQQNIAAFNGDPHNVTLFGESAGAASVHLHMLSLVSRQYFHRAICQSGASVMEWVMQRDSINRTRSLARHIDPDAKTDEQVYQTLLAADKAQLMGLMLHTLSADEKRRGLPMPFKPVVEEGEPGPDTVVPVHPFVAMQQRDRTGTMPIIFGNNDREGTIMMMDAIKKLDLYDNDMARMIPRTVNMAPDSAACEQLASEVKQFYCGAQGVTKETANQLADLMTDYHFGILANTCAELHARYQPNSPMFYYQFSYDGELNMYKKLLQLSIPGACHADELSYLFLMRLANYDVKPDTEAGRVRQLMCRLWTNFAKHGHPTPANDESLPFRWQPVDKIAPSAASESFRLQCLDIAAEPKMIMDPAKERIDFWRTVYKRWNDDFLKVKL
Nature of the data set: Insecticide inhibition of α-NA hydrolysis by recombinant Coeae6g. In kind it is biochemical. Conditions: for IC50 (μΜ) (95% CI) of α-NA hydrolysis: 10 min pre-incubation, α-NA at Km, Sf9 homogenate expressing Coeae6g.

Data set [2] deals with active serine hydrolases (FP-reactive bands, ~62–70 kDa) in An. gambiae homogenates. Type of data set: biochemical, Anopheles gambiae (Kisumu strain).
Data set [3] has as its system GAL4/UAS-AngCoeae6g mosquitoes. Nature of the data set: WHO tube/adult bioassays. The arrangement: species or system Anopheles gambiae. Conditions: in vivo.
Data set [4] relates to GAL4/UAS-AncCoeae6g mosquitoes. In words: WHO tube/adult bioassays.
Data set [5] addresses T1, recombinant An. coluzzii Coeae6g. Type of data set: biochemical. Conditions: for Km: read-out: Km (95% CI); for Km / Vmax (95% CI): substrate of recombinant Coeae6g (Sf9-Coeae6g); for fold increased esterase activity compared to YFP-expressing and uninfected Sf9 cells: resuspended cell pellets expressing Coeae6g.
Data set [6] has as its system whole extracts of An. gambiae Coeae6g overexpressing mosquitoes. Nature of the data set: Total esterase activity of whole mosquito extracts towards model substrates. In kind it is biochemical, Anopheles gambiae.
The subject of data set [7] is A11 parental line mosquitoes. Nature of the data set: WHO tube/adult bioassays. In kind it is in vivo, Anopheles gambiae. Conditions: exposure for 10 and 15 min, three replicates.
Data set [8] has as its system GAL4/UAS-AncCoeae6g mosquitoes. The following applies: in vivo.

Where two headings read alike, the source gives them in different places. Some results are limits rather than exact numbers.

Turning to `CNC(=O)Oc1cccc2c1OC(C)(C)O2` [Bendiocarb, bendiocarb], the IC50 in data set [1] worked out at 7.27 µM.

In the case of `CCN(CC)c1nc(C)cc(OP(=S)(OC)OC)n1` [PM, pirimiphos-methyl], in data set [2], the “T-FP labelling of distinct ~90 kDa band” value is reported as “not affected” and the “T-FP labelling of prominent bands at ~62–70 kDa” value was “markedly reduced”. For the same molecule, the IC50 in data set [2] (read-out: IC₅₀ (FP-TAMRA labelled ~62–70 kDa band intensity)) was about 10.6 µM. The “IC50 (μΜ) (95% CI) of α-NA hydrolysis” value in data set [1] is “No inhibition”. Besides, the Mortality rate in data set [3] was found to be 67%. The molecule also registered a Mortality rate in data set [4] (in vivo) of 79%.

For `CC(=O)Oc1ccc2ccccc2c1` [β-NA, β-naphthyl acetate], in data set [5], the Km was determined as 369 µM; the “fold increased esterase activity compared to YFP-expressing and uninfected Sf9 cells” value (“fold increased esterase activity” for short) is on record as 8-12 fold; the “Vmax (95% CI)” value is 253.0 nmol min^−1 mg total protein^−1. In addition, in data set [6], the “fold higher total carboxylesterase activity than control parental mosquitoes” value was 2.3 fold.

As to `CC1(C)[C@H](C(=O)O[C@H](C#N)c2cccc(Oc3ccccc3)c2)[C@@H]1C=C(Br)Br` [Deltamethrin, deltamethrin], in data set [1], the IC50 is over 450 µM and the “IC50 (μΜ) (95% CI) of α-NA hydrolysis” value is given as “no inhibition”. Moreover, the Mortality in data set [7] is reported as 100%. Moreover, in data set [4] (exposure for 10 and 15 min, three replicates), the Mortality was 100%.

With `CC1(C)C(C=C(Cl)Cl)C1C(=O)OCc1cccc(Oc2ccccc2)c1` (centres unmarked) [Permethrin, permethrin], the IC50 in data set [1] amounted to 130 µM. For the same molecule, in data set [8], the Mortality rate is on record as 81.8%.

Consider `CCOC(=O)CC(SP(=O)(OC)OC)C(=O)OCC` (centres unmarked) [Malaoxon, malaoxon], for which the IC50 in data set [1] amounted to 0.24 µM.

Take `CC(=O)Oc1ccc([N+](=O)[O-])cc1` [p-NPA, p-nitrophenyl acetate]: the “fold increased esterase activity” value in data set [5] is recorded as 8-12 fold. Moreover, the “fold higher total carboxylesterase activity than control parental mosquitoes” value in data set [6] was 2.9 fold.

Turning to `CC(=O)Oc1cccc2ccccc12` [α-NA, α-naphthyl acetate], in data set [5], the Km is 68.5 µM; the “fold increased esterase activity” value was 8-12 fold; the “Vmax (95% CI)” value is reported as 307.7 nmol min^−1 mg total protein^−1.

On to `CCOC(=O)CC(SP(=S)(OC)OC)C(=O)OCC` (centres unmarked) [Malathion, malathion], for which, in data set [1], the IC50 was over 45 µM and the “IC50 (μΜ) (95% CI) of α-NA hydrolysis” value is recorded as “No inhibition”.

Take `CNC(=O)Oc1ccccc1OC(C)C` [Propoxur, propoxur]: in data set [1], the IC50 is 3.52 µM.

For orientation: Km means the substrate concentration at which the rate is half of its maximum.
